From article PMC6751662, “Pharmacological and functional similarities of the human neuropeptide Y system in C. elegans challenges phylogenetic views on the FLP/NPR system” (Cell Communication and Signaling : CCS, 2019) come the findings set out here.

Format in all cases: cell-based, C. elegans
Assay [1] relates to NPR-6. Put plainly: cAMP reporter gene assay, Gs (no forskolin), NPR-6. The conditions noted are these: no forskolin, 4 h, transiently transfected HEK293, CRE-luciferase reporter, mean of >=3 independent experiments. Here is the method: (§1) Activation of Gs and Gi/o was assessed with a cAMP reporter gene assay. HEK293 cells grown to 70–80% confluency in 6-well plates were transiently co-transfected with vectors encoding the receptor and the cAMP reporter gene plasmid pGL4.29 [luc2P/CRE/Hygro] (Promega; 4 μg total, 1:1 ratio) using Metafectene Pro (3 μl/μg DNA; Biontex) following the manufacturer’s instructions. 16 h post transfection, the cells were seeded into white 384-well plates at a density of 20,000 cells/well. On the next day, the medium was removed and the cells were stimulated with 20 μl of peptide solution (or forskolin as positive control) in serum-free DMEM for 4 h. For measuring Gi/o activity, the peptide solutions additionally contained 1 μM forskolin to elevate cellular cAMP levels. After incubation, the luciferase substrate OneGlo in lysis buffer (Promega) was added and the luminescence was measured in a microplate reader Tecan Spark (Tecan). Data were analyzed with GraphPad Prism 5.03 and are shown as fold of basal or fold of forskolin in case of Gαi/o activity.
(§2) For in vitro activation, data is presented as mean ± SEM of at least three independent experiments conducted in technical triplicate. […] For the C. elegans NPRs, we considered the strongest response elicited by any of the peptides downstream of a particular receptor as the receptor’s maximal signal. This may or may not be the biological maximum that can be reached by the ‘true’ endogenous agonist. For the human receptors, the response to the established endogenous agonist reflected the maximal signal.
(In general: Reporter assays use an easily measured gene product as a stand-in for the process of interest.)

The test system of assay [2] is NPR-6. Put plainly: IP accumulation assay, endogenous Gαq + mock, NPR-6. The conditions noted are these: 1 h, HBSS + 20 mM LiCl, HEK293 receptor + empty vector, HTRF IP-One, mean of >=3 independent experiments. As for the experimental part:
(§3) For measuring IP accumulation, HEK293 cells grown to 70–80% confluency in 6-well plates were transiently co-transfected using Metafectene Pro (2.5 μl/μg DNA; Biontex) with plasmids containing receptor and/or mock (empty pcDNA3.1) (for endogenous Gq-coupling) using 4 μg total DNA in a ratio of 3:1 following the manufacturer’s instructions. For testing Gα16- and GαΔ6qi4myr-coupling, plasmids encoding the corresponding Gα protein were co-transfected instead of mock. Gα16 is naturally promiscuous and stimulates the phospholipase C (PLC) pathway leading to IP production, while the exchange of the C-terminal four amino acids of Gαq for the corresponding residues of Gαi1 in the chimeric GαΔ6qi4myr confers the ability to couple to Gi/o protein-preferring receptors but still stimulate PLC, thus specifically redirecting downstream cellular signaling. 16 h post transfection, the cells were seeded into white 384-well plates at a density of 20,000 cells/well. Media was removed 24 h later and the cells were incubated with the indicated concentration of peptides for 1 h in HBSS + 20 mM LiCl. IP accumulation was measured with the HTRF-based IP-One Gq kit (Cisbio) on a microplate reader (Tecan Spark).
(§4) For in vitro activation, data is presented as mean ± SEM of at least three independent experiments conducted in technical triplicate. […]
For orientation: Time-resolved FRET reads energy transfer from a long-lived donor to a nearby acceptor.

The target of assay [3] is T1, NPR-3 (Caenorhabditis elegans, UniProt P90745).
T1 construct: expressed in transfected cells; host or cells: HEK293
T1 sequence (P90745 1-376): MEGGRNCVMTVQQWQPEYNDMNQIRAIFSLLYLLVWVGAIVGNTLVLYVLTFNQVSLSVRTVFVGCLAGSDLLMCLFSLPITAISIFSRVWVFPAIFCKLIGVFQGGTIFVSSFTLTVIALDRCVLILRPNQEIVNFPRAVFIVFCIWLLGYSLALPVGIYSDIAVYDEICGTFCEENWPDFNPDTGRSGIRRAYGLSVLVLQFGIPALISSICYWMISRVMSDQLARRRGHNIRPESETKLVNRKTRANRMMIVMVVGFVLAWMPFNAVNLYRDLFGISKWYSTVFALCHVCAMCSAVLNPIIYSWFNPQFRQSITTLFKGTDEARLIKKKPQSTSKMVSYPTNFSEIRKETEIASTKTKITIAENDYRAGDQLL
In words: IP accumulation assay, co-transfected Gα16, NPR-3. The conditions noted are these: 1 h, HBSS + 20 mM LiCl, HEK293 receptor + Gα16, HTRF IP-One, mean of >=3 independent experiments. Here is the method: as §3, §4

Assay [4] has as its target T2, NPR-11 (Caenorhabditis elegans, UniProt Q18179).
T2 construct: expressed in transfected cells; host or cells: HEK293, transient
T2 sequence (Q18179 1-402): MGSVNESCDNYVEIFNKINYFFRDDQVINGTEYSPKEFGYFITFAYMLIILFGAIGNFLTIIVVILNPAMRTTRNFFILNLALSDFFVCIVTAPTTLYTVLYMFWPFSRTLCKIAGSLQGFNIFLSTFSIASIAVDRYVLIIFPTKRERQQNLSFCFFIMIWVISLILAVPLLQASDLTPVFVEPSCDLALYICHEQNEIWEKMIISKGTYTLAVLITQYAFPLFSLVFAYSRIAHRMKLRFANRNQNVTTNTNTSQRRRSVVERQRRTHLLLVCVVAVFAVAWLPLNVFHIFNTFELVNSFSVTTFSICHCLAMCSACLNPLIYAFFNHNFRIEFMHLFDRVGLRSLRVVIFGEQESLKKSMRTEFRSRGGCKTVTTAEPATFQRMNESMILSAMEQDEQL
Put plainly: IP accumulation assay, co-transfected Gα16, NPR-11. The conditions noted are these: 1 h, HBSS + 20 mM LiCl, HEK293 receptor + Gα16, HTRF IP-One, mean of >=3 independent experiments. Here is the method:
as §3, §4

Assay [5] deals with T3, NPR-1 (Caenorhabditis elegans, UniProt Q18534).
T3 sequence (Q18534 1-457): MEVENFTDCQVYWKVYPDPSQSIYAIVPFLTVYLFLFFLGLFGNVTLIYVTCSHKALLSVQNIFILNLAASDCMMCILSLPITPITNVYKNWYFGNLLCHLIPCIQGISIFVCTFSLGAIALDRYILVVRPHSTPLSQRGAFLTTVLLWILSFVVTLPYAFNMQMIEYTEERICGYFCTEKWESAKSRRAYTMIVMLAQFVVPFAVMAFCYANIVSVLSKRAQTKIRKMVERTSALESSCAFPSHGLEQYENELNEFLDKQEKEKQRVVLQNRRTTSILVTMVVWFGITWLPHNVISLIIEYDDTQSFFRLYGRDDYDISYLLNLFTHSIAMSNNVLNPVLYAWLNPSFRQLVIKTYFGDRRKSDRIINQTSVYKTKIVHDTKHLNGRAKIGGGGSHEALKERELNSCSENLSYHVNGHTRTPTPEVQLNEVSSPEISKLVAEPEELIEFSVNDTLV
In words: cAMP reporter gene assay, Gs (no forskolin), NPR-1. Set-up: host or cells: HEK293. The conditions noted are these: no forskolin, 4 h, transiently transfected HEK293, CRE-luciferase reporter, mean of >=3 independent experiments. As for the experimental part: as §1, §2

[6] abbreviates: 0.1 nM peptide (so in the source).

As for “APKPKFIRF-NH2 [FLP-5-1, C. elegans FMRFamide-like peptide, C-terminally amidated, synthesized by SPPS]”, the entries for the “cAMP assay Gs, NPR-6” value in assay [1] (0.1 µM peptide) and in assay [1] (10 µM peptide) were 0.68 x-fold of basal and 0.57 x-fold of basal, respectively. Further, the “IP assay endog. Gαq + mock, NPR-6” value in assay [2] (setting [6]) is recorded as 0.92 x-fold of basal; in assay [2] (10 µM peptide), 0.95 x-fold of basal. Further, the “IP assay endog. Gαq + Gα16, NPR-3” value in assay [3] (setting [6]) is 0.93 x-fold of basal; in assay [3] (10 µM peptide), 0.81 x-fold of basal. The “IP assay endog. Gαq + Gα16, NPR-11” value was 1.04 x-fold of basal in assay [4] (setting [6]) and 0.84 x-fold of basal in assay [4] (10 µM peptide). The “cAMP assay Gs, NPR-1” value is recorded as 1.12 x-fold of basal in assay [5] (0.1 µM peptide) and 1.05 x-fold of basal in assay [5] (10 µM peptide).
